Source: publication PMC5161041 (Journal of medicinal chemistry, 2016)

Tests used:
[1] = test system: mice; test: Locomotor activity studies in mice; details: for locomotion: i.p.
[2] = target: Dopamine D2 receptor Gi1 activation (Homo sapiens, UniProt P14416); format: cell-based
[3] = introductory statement, no reference given; cited from earlier work
[4] = target: DAT (Rattus norvegicus, UniProt P23977); test: DAT binding assay, [3H]WIN 35,428, rat striatal membranes; details: 8c vs 10a, 9c vs 11a
[5] = Mouse microsomal stability assay; format: in vitro ADME; details: mouse liver microsomes
[6] = target: NET (Rattus norvegicus, UniProt Q63380); test: NET binding assay, [3H]nisoxetine, rat frontal cortex membranes
Sequence of NET (Q63380 1-617): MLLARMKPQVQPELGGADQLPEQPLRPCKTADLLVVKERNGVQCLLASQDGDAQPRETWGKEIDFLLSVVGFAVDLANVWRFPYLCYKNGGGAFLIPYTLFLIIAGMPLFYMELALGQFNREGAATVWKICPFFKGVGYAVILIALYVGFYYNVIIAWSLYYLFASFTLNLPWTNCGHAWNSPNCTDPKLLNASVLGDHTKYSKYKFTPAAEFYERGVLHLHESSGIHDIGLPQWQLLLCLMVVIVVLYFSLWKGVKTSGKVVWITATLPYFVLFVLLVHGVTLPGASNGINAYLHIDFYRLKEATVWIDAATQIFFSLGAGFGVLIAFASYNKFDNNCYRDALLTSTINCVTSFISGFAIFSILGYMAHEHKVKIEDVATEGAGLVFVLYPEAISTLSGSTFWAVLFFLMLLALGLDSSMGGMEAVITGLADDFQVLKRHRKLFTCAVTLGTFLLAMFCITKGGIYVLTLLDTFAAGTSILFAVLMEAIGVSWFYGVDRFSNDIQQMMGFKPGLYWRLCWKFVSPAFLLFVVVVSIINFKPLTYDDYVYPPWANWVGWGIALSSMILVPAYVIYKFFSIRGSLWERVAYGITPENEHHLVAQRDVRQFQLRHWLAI

Sequence of Dopamine D2 receptor Gi1 activation (P14416 whole entry): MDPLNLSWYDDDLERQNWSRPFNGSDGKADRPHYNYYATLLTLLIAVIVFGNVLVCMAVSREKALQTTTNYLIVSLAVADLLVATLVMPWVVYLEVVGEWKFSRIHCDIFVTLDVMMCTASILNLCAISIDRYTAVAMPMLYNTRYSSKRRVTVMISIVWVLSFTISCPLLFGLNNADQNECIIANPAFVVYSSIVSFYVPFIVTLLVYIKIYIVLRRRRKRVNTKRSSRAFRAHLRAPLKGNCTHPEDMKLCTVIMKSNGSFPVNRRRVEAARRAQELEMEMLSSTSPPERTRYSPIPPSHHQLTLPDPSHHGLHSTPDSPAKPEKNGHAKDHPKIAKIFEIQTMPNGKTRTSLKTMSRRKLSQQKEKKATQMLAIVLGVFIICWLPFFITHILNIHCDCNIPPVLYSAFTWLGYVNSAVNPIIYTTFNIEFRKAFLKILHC
Sequence of DAT (P23977 whole entry): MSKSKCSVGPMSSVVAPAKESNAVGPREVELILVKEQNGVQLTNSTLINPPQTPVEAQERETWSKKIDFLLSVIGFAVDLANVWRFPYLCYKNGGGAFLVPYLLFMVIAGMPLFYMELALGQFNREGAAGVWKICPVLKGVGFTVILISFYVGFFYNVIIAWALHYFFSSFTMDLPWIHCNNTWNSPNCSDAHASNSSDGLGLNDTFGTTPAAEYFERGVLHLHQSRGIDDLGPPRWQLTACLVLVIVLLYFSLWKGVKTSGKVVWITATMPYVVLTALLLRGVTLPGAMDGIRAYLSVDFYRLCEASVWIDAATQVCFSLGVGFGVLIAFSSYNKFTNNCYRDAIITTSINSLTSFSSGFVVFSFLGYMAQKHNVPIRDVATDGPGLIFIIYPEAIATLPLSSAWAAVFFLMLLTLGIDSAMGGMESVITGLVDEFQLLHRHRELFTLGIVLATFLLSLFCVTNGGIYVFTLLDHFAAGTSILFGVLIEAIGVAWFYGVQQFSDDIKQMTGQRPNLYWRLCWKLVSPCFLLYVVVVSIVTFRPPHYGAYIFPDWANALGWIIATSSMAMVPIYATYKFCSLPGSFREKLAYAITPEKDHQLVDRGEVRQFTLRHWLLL

Compound	time in which metabolized [5]	Ki [6]	also measured
NC(=O)C[S@@+]([O-])C(c1ccccc1)c1ccccc1 [(R)-2, reference compound]			locomotion ([1]; mice, 10 mg/kg): very mild increase; locomotion ([1]; mice, 30 mg/kg): significant dose-dependent increase in locomotion; IC50 [2]: > 10 µM
NC(=O)C[S+]([O-])C(c1ccccc1)c1ccccc1 (centres unmarked) [Compound 2, 2-[(diphenylmethyl)sulfinyl]acetamide]			water solubility [3]: essentially insoluble in water
CCCCN1C2CCC1CC(OC(c1ccc(F)cc1)c1ccc(F)cc1)C2 (centres unmarked) [Compound 3, 3-(bis(4-fluorophenyl)methoxy)-8-butyl-8-azabicyclo[3.2.1]octane]			IC50 [2]: 2 ± 0.73 µM
Fc1ccc(C(SCCNCCCc2ccccc2)c2ccc(F)cc2)cc1 [Compound 4, N-(2-((bis(4-fluorophenyl)methyl)thio)ethyl)-3-phenylpropan-1-amine]			IC50 [2]: > 10 µM
CC(O)CN1CCN(CCSC(c2ccccc2)c2ccccc2)CC1 (centres unmarked) [Compound 8c, 1-(4-(2-(Benzhydrylthio)ethyl)piperazin-1-yl)propan-2-ol]			fold decrease in DAT affinity on removal of the phenyl group [4]: 25 fold
CC(O)CN1CCN(CC[S+]([O-])C(c2ccccc2)c2ccccc2)CC1 (centres unmarked) [Compound 9c, 1-(4-(2-(Benzhydrylsulfinyl)ethyl)piperazin-1-yl)propan-2-ol]			fold decrease in DAT affinity on removal of the phenyl group [4]: 187 fold
[O-][S+](CCN1CCN(Cc2ccc(F)cc2)CC1)C(c1ccc(F)cc1)c1ccc(F)cc1 (centres unmarked) [Compound 9f, 1-(2-((Bis(4-fluorophenyl)methyl)sulfinyl)ethyl)-4-(4-fluorobenzyl)piperazine]	< 30 min	> 50 µM	
[O-][S+](CCN1CCN(Cc2ccc(C(F)(F)F)cc2)CC1)C(c1ccc(F)cc1)c1ccc(F)cc1 (centres unmarked) [Compound 9g, 1-(2-((Bis(4-fluorophenyl)methyl)sulfinyl)ethyl)-4-(4-(trifluoromethyl)benzyl)piperazine]	< 30 min	> 50 µM	
[O-][S+](CCN1CCN(Cc2ccc(Cl)cc2)CC1)C(c1ccc(F)cc1)c1ccc(F)cc1 (centres unmarked) [Compound 9h, 1-(2-((Bis(4-fluorophenyl)methyl)sulfinyl)ethyl)-4-(4-chlorobenzyl)piperazine]	< 30 min	> 50 µM	
CC(O)CN1CCN(CC[S+]([O-])C(c2cccc(Cl)c2)c2cccc(Cl)c2)CC1 (centres unmarked) [Compound 9i, 1-(4-(2-((Bis(3-chlorophenyl)methyl)sulfinyl)ethyl)piperazin-1-yl)propan-2-ol]		> 50 µM	
[O-][S+](CCN1CCN(CC(O)Cc2ccccc2)CC1)C(c1ccccc1)c1ccccc1 (centres unmarked) [Compound 11a, 1-(4-(2-(Benzhydrylsulfinyl)ethyl)piperazin-1-yl)-3-phenylpropan-2-ol]	< 30 min		
[O-][S+](CCN1CCN(CC(O)Cc2ccccc2)CC1)C(c1ccc(F)cc1)c1ccc(F)cc1 (centres unmarked) [Compound 11b, 1-(4-(2-((Bis(4-fluorophenyl)methyl)sulfinyl)ethyl)piperazin-1-yl)-3-phenylpropan-2-ol]			locomotor stimulation compared to cocaine ([1]; mice): only moderate locomotor stimulation in mice and was substantially less efficacious than cocaine; locomotion ([1]; mice, 30 mg/kg): significant dose-dependent increase in locomotion; locomotor stimulation compared to cocaine ([1]; mice, listed as 11d): far less efficacious than cocaine
CC(O)CN1CCN(C(=O)CSC(c2ccc(F)cc2)c2ccc(F)cc2)CC1 (centres unmarked) [Compound 13c, 2-((Bis(4-fluorophenyl)methyl)thio)-1-(4-(2-hydroxypropyl)piperazin-1-yl)ethan-1-one]	< 30 min		
CC(O)CN1CCN(C(=O)CSC(c2cccc(Cl)c2)c2cccc(Cl)c2)CC1 (centres unmarked) [Compound 13g, 2-((Bis(3-chlorophenyl)methyl)thio)-1-(4-(2-hydroxypropyl)piperazin-1-yl)ethan-1-one]		> 50 µM	
O=C(C[S+]([O-])C(c1ccc(F)cc1)c1ccc(F)cc1)N1CCN(CCCc2ccccc2)CC1 (centres unmarked) [Compound 14b, 2-((Bis(4-fluorophenyl)methyl)sulfinyl)-1-(4-(3-phenylpropyl)piperazin-1-yl)ethan-1-one]	< 30 min		
O=C(C[S+]([O-])C(c1ccc(F)cc1)c1ccc(F)cc1)N1CCN(Cc2ccc(F)cc2)CC1 (centres unmarked) [Compound 14e, 2-((Bis(4-fluorophenyl)methyl)sulfinyl)-1-(4-(4-fluorobenzyl)piperazin-1-yl)ethan-1-one]	< 30 min		
CC(O)CN1CCN(C(=O)C[S+]([O-])C(c2cccc(Cl)c2)c2cccc(Cl)c2)CC1 (centres unmarked) [Compound 14g, 2-((Bis(3-chlorophenyl)methyl)sulfinyl)-1-(4-(2-hydroxypropyl)piperazin-1-yl)ethan-1-one]		> 50 µM	
COC(=O)[C@H]1[C@@H](OC(=O)c2ccccc2)C[C@@H]2CC[C@H]1N2C [cocaine, reference compound]			locomotion ([1]; mice, 3, 10 mg/kg): robust dose-dependent increase in locomotion
CCc1cc(Cl)c(OC)c(C(=O)NC[C@@H]2CCCN2CC)c1O [eticlopride]			IC50 [2]: 0.0021 ± 0.0008 µM
